Results from patent publication US7189720B2 (H. Lundbeck A/S, priority 1999, dated 2007).

target: T1, human Y5 receptor (Homo sapiens, UniProt Q15761); experiment: Radioligand binding to membranes, cloned human Y5 receptor; conditions: Table 1; read-out: Ki (nM) hNPY-5
T1 construct: expressed in transfected cells; host or cells: mouse fibroblast LM(tk-) cells, e.g. L-hY5-7 (ATCC CRL-11995)
T1 sequence (Q15761 1-445): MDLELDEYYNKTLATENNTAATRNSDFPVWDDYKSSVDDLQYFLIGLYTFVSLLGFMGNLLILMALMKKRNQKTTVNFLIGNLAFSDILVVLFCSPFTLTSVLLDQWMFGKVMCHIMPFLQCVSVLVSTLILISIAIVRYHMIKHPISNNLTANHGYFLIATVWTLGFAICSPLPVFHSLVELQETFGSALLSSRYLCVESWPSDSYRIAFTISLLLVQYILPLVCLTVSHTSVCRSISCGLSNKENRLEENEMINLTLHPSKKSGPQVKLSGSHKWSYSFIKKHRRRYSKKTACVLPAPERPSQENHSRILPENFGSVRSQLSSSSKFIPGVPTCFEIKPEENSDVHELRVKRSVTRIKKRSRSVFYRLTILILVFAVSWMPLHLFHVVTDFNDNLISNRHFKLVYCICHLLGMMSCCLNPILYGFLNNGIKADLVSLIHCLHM

Ki [nM]	SMILES
135	CC(C)Nc1nc(NCC2CCC(CNS(=O)(=O)c3cccc4ccccc34)CC2)nc(N2C[C@@H](C)O[C@@H](C)C2)n1 (stereo partly drawn) [Example 25, N1-{[4-({[4-[(2R,6S)-2,6-dimethyl-1,4-oxazinan-4-yl]-6-(isopropylamino)-1,3,5-triazin-2-yl]amino}methyl)cyclohexyl]methyl}-1-naphthalenesulfonamide]
27	CC(C)Nc1nc(NCC2CCC(CNS(=O)(=O)c3cccc4ccccc34)CC2)nc(N(C)C)n1 (stereo not drawn) [Example 17, N1-{[4-({[4-(dimethylamino)-6-(isopropylamino)-1,3,5-triazin-2-yl]amino}methyl)cyclohexyl]methyl}-1-naphthalenesulfonamide]
23	CC(C)Nc1nc(NCC2CCC(CNS(=O)(=O)c3cccc4ccccc34)CC2)nc(NC(C)C)n1 (stereo not drawn) [Example 4, N1-{[4-({[4,6-Di(isopropylamino)-1,3,5-triazin-2-yl]amino}methyl)cyclohexyl]methyl}-1-naphthalenesulfonamide]
22	COCCCNc1nc(NCC2CCC(CNS(=O)(=O)c3cccc4ccccc34)CC2)nc(NC(C)C)n1 (stereo not drawn) [Example 13, N1-(4-[(4-(isopropylamino)-6-[(3-methoxypropyl)amino]-1,3,5-triazin-2-ylamino)methyl]cyclohexylmethyl)-1-naphthalenesulfonamide]
194	CC(C)Nc1nc(NCCN(C)C)nc(NCC2CCC(CNS(=O)(=O)c3cccc4ccccc34)CC2)n1 (stereo not drawn) [Example 14, N1-{[4-({[4-{[2-(dimethylamino)ethyl]amino}-6-(isopropylamino)-1,3,5-triazin-2-yl]amino}methyl)cyclohexyl]methyl}-1-naphthalenesulfonamide]

same assay, conditions: Table 2; read-out: Ki (nM) hNPY-5

Ki [nM]	SMILES
82	CCNc1nc(NCC)nc(NCC2CCC(CNS(=O)(=O)c3ccc(OC)cc3)CC2)n1 (stereo not drawn) [Example 35, N1-[4-([4,6-di(ethylamino)-1,3,5-triazin-2-yl]aminomethyl)cyclohexyl]methyl-4-methoxy-1-benzenesulfonamide]
5	CCNc1nc(NCC)nc(NCC2CCC(CNS(=O)(=O)c3ccc4nsnc4c3)CC2)n1 (stereo not drawn) [Example 40, N5-[4-([4,6-di(ethylamino)-1,3,5-triazin-2-yl]aminomethyl)cyclohexyl]methyl-2,1,3-benzothiadiazole-5-sulfonamide]
50	CCNc1nc(NCC)nc(NCC2CCC(CNS(=O)(=O)c3ccc(C(C)(C)C)cc3)CC2)n1 (stereo not drawn) [Example 29, N1-[4-([4,6-di(ethylamino)-1,3,5-triazin-2-yl]aminomethyl)cyclohexyl]methyl-4-(tert-butyl)-1-benzenesulfonamide]

same assay, conditions: Table 3; read-out: Ki (nM) hNPY-5

Ki [nM]	SMILES
101	O=S(=O)(NCC1CCC(CNc2nc(NC3CC3)nc(N3CCCC3)n2)CC1)c1ccc(F)cc1 (stereo not drawn) [Example 52, N1-[4-([4-(cyclopropylamino)-6-tetrahydro-1H-1-pyrrolyl-1,3,5-triazin-2-yl]aminomethyl)cyclohexyl]methyl-4-fluoro-1-benzenesulfonamide]
3540	CC(C)Nc1nc(Cl)nc(NCC2CCC(CNS(=O)(=O)c3ccc(C(C)(C)C)cc3)CC2)n1 (stereo not drawn) [Example 51, N1-[4-([4-chloro-6-(isopropylamino)-1,3,5-triazin-2-yl]aminomethyl)cyclohexyl]methyl-4-(tert-butyl)-1-benzenesulfonamide]
295	CC(C)Nc1nc(NCC2CCC(CNS(=O)(=O)N3CCOCC3)CC2)nc(N2CCOCC2)n1 (stereo not drawn) [Example 44, N4-[4-([4-(isopropylamino)-6-morpholino-1,3,5-triazin-2-yl]aminomethyl)cyclohexyl]methyl-4-morpholinesulfonamide]

same assay, conditions: Table 5; read-out: Ki, nM hNPY-5

Ki [nM]	SMILES
407	COCCN(C=O)[C@H]1CC[C@H](CNc2nc(-c3nc(C)sc3C)cs2)CC1 [Example 101, trans-N-[4-([4-(2,5-Dimethyl-1,3-thiazol-4-yl)-1,3-thiazol-2-yl]aminomethyl)cyclohexyl]-N-(2-methoxyethyl)formamide]
17	COc1ccc(C)cc1S(=O)(=O)N[C@H]1CC[C@H](CNc2nc(-c3ccncc3)cs2)CC1 [Example 87, trans-2-(4-(2-Methoxy-5-methylphenyl)sulfonylamino)-cyclohexylmethylamino-4-(4-pyridyl)thiazole dihydrogen chloride]
19.5	Cc1nc(-c2csc(NCCCCCNS(=O)(=O)c3ccc(F)cc3)n2)c(C)s1 [Example 94, N1-(5-[4-(2,5-Dimethyl-1,3-thiazol-4-yl)-1,3-thiazol-2-yl]aminopentyl)-4-fluoro-1-benzenesulfonamide]
4	COc1ccc(C)cc1S(=O)(=O)N[C@H]1CC[C@H](CNc2nc(-c3ccccn3)cs2)CC1 [Example 83, trans-2-(4-(2-Methoxy-5-methylphenyl)sulfonylamino)-cyclohexylmethylamino-4-(2-pyridyl)thiazole dihydrogen chloride]
3.3	Cc1nc(-c2csc(NC[C@H]3CC[C@H](CNS(=O)(=O)N4CCOCC4)CC3)n2)c(C)s1 [Example 100, trans-N4-[4-([4-(2,5-Dimethyl-1,3-thiazol-4-yl)-1,3-thiazol-2-yl]aminomethyl)cyclohexyl]methyl-4-morpholinesulfonamide]
33	COc1ccc(S(=O)(=O)NCCCCCNc2nc(-c3ccccn3)cs2)cc1 [Example 62, 2-(5-(4-Methoxyphenyl)sulfonylamino)pentylamino-4-(2-pyridyl)thiazole hydrogen chloride]
3.6	COc1ccc(C)cc1S(=O)(=O)NCCCCCNc1nc(-c2nc(C)sc2C)cs1 [Example 93, N1-(5-[4-(2,5-Dimethyl-1,3-thiazol-4-yl)-1,3-thiazol-2-yl]aminopentyl)-2-methoxy-5-methyl-1-benzenesulfonamide]

same assay, conditions: Table 6; read-out: Ki, nM hNPY-5

Ki [nM]	SMILES
123	O=C(NCCCCNc1nc2c(s1)CCSc1ccccc1-2)c1cccc2ccccc12 [Example 140, N1-[4-(4,5-Dihydrobenzo[2,3]thiepino[4,5-d][1,3]thiazol-2-ylamino)butyl]-1-naphthamide]
8.3	Cc1cccc(F)c1S(=O)(=O)NCCCCCNc1nc2c(s1)CCSc1ccccc1-2 [Example 134, N1-[5-(4,5-Dihydrobenzo[2,3]thiepino[4,5-d][1,3]thiazol-2-ylamino)pentyl]-2-fluoro-6-methyl-1-benzenesulfonamide]
11.5	O=[N+]([O-])c1ccccc1S(=O)(=O)NC[C@H]1CC[C@H](Nc2nc3c(s2)CCSc2ccccc2-3)CC1 [Example 124, N1-{[4-(4,5-Dihydrobenzo[2,3]thiepino[4,5-d][1,3]thiazol-2-ylamino)cyclohexyl]methyl}-2-nitro-1-benzenesulfonamide]
54	O=S(=O)(NC[C@H]1CC[C@H](Nc2nc3c(s2)CCSc2ccccc2-3)CC1)c1ccc(-c2ccccn2)s1 [Example 120, N2-{[4-(4,5-Dihydrobenzo[2,3]thiepino[4,5-d][1,3]thiazol-2-ylamino)cyclohexyl]methyl}-5-(2-pyridyl)-2-thiophenesulfonamide]
6.5	O=S(=O)(NCCCCCNc1nc2c(s1)CCSc1ccccc1-2)c1ccc(F)cc1F [Example 137, N1-[5-(4,5-Dihydrobenzo[2,3]thiepino[4,5-d][1,3]thiazol-2-ylamino)pentyl]-2,4-difluoro-1-benzenesulfonamide]
5.1	O=S(=O)(NC[C@H]1CC[C@H](Nc2nc3c(s2)CCSc2ccccc2-3)CC1)c1cccs1 [Example 108, N2-{[4-(4,5-Dihydrobenzo[2,3]thiepino[4,5-d][1,3]thiazol-2-ylamino)cyclohexyl]methyl}-2-thiophenesulfonamide]
